Source: patent US5573748A, “Radiolabeled technetium chelates for use in renal function determinations” (University of Utah Research Foundation, priority 1994, dated 1996)

What was measured:
[1] = Biodistribution in normal mice after intravenous injection (renal uptake); type: in vivo
Method: Tc-99m-MAGGG was administered simultaneously with I-131 OIH (as a reference standard) to six mice in two groups. Each mouse was injected intravenously with 0.1 milliliters of a preparation containing 0.5 microcuries of Tc-99m-MAGGG and 0.2 microcuries of I-131 OIH, and then placed into a metabolic cage capable of collecting excreted urine.
Ten minutes after injection, each mouse's urethra was ligated and the mouse was sacrificed by chloroform vapor; various samples were then taken to determine biodistribution of radiolabeled material. The results of these samples are shown in Table I. Similar measurements, shown in Table II, were taken on the second group of mice 120 minutes after injection.

[2] = Biodistribution in probenicid-treated mice (inhibited renal tubular transport); type: in vivo; settings: probenicid-treated mice (50 mg/kg), 10 minutes after injection
Method: In order to test the biodistribution of Tc-99m-MAGGG in mice having inhibited renal tubular transport, six mice were injected with a solution of probenicid at the rate of 50 milligrams of probenicid per kilogram of body weight. Ten minutes later, each mouse was injected with 0.1 milliliters of a solution containing 0.5 microcuries of Tc-99m-MAGGG and 0.2 microcuries of I-131 OIH. After an additional ten minutes, each mouse was sacrificed and various samples taken to determine biodistribution of radiolabeled material.

[3] = cited from earlier work
[4] = Renal excretion in humans (normal volunteers); type: in vivo
Method: The renal excretion of Tc-99m-MAGGG in humans was obtained based upon experiments on normal volunteers. For purposes of comparison, tests were also conducted using I-131 OIH either immediately before or after the study using Tc-99m-MAGGG.
In Example 6, the Tc-99m-MAGGG used was prepared with stannous reduction similar to the procedure set forth in Example 2, with glucoheptonate being used as an intermediate exchange ligand. In Example 7, dithionite was used as a reducing agent instead of using stannous reduction. Both examples provided Tc-99m-MAGGG having the same major peak on a HPLC column.
In both examples, the subject was injected with a dosage containing about 15 millicuries of Tc-99m-MAGGG. The comparative tests utilizing I-131 OIH involved administration of about 300 microcuries of I-131 OIH. In both instances, imaging of the kidneys ureters, and blood pool was conducted for a period of about 30 minutes, following which the count rate in the bladder was measured.
Thereafter, the bladder was voided, and an additional image was taken to detect the presence of residual radioactivity in order to allow determination of the percent of urine radioactivity at 30 minutes. Measurements were also taken at 3 hours.

Row | Compound | level in the urine relative to corresponding level of I-131 OIH ([1]; 10 minutes) | Blood ([1]; 10 minutes after injection) | Intestine ([1]; 10 minutes after injection) | Kidneys ([1]; 10 minutes after injection) | Liver ([1]; 10 minutes after injection) | Stomach ([1]; 10 minutes after injection) | Urine ([1]; 10 minutes after injection) | level in the urine relative to corresponding level of I-131 OIH ([1]; 120 minutes) | Blood ([1]; 120 minutes after injection) | Intestine ([1]; 120 minutes after injection) | Kidneys ([1]; 120 minutes after injection) | Liver ([1]; 120 minutes after injection) | Stomach ([1]; 120 minutes after injection) | Urine ([1]; 120 minutes after injection) | further results
1 | Tc-99m-mercapoacetylglycylglycylalanine [Tc-99m-MAGG-Alanine] | 106.4% | 2.6 percentage of radioactive agen | 1.6 percentage of radioactive agen | 5.2 percentage of radioactive agen | 2.6 percentage of radioactive agen | .2 percentage of radioactive agen | 75.1 percentage of radioactive agen | 102.2% | .2 percentage of radioactive agen | 2.2 percentage of radioactive agen | .3 percentage of radioactive agen | .1 percentage of radioactive agen | .2 percentage of radioactive agen | 96.0 percentage of radioactive agen | –
2 | Tc-99m-mercaptoacetylglycylglycylglycylglycine [Tc-99m-MAGGGG] | 86.7% | 2.7 percentage of radioactive agen | 10.3 percentage of radioactive agen | 3.3 percentage of radioactive agen | 9.9 percentage of radioactive agen | .2 percentage of radioactive agen | 58.4 percentage of radioactive agen | 87.6% | .04 percentage of radioactive agen | 16.0 percentage of radioactive agen | .2 percentage of radioactive agen | 1.1 percentage of radioactive agen | .05 percentage of radioactive agen | 82.5 percentage of radioactive agen | –
3 | O=C(O)CNC(=O)c1ccccc1[131I] [I-131 OIH, I-131 ortho-iodohippurate, reference compound] | – | 4.1 percentage of radioactive agen | 1.0 percentage of radioactive agen | 2.2 percentage of radioactive agen | 1.8 percentage of radioactive agen | 0.5 percentage of radioactive agen | 74.4 percentage of radioactive agen | – | 0.14 percentage of radioactive agen | 0.16 percentage of radioactive agen | 0.06 percentage of radioactive agen | 0.11 percentage of radioactive agen | 0.98 percentage of radioactive agen | 96.0 percentage of radioactive agen | Blood [2]: 7.0 percentage of radioactive agen; Intestine [2]: 2.0 percentage of radioactive agen; Kidneys [2]: 3.6 percentage of radioactive agen; Liver [2]: 3.7 percentage of radioactive agen; Stomach [2]: 0.75 percentage of radioactive agen; Urine [2]: 59.2 percentage of radioactive agen; renal extraction efficiency ([3]; in vivo): 65%-80; urine radioactivity (renal excretion) ([4]; 30 minutes): 65.5 ± 6.3 percentage of radioactive agen; urine radioactivity (renal excretion) ([4]; 3 hours): 93.5 ± 3.2 percentage of radioactive agen
4 | Tc-99m-N,N'-bis(mercaptoacetyl)-2,3-diaminopropanoate [Tc-99m-CO2 -DADS-B] | – | – | – | – | – | – | – | – | – | – | – | – | – | – | removal by the kidneys compared with Tc-99m-CO2-DADS-A isomer ([3]; in vivo): far less efficiently removed by the kidneys
5 | Tc-99m diethylenetriaminepentaacetic acid [Tc-99m-DTPA] | – | – | – | – | – | – | – | – | – | – | – | – | – | – | maximum extraction efficiency ([3]; glomerular filtration only): 20-25%
6 | Tc-99m-N,N'-bis(mercaptoacetyl)-2,3-diaminopropanoate [Tc-99m-CO2 -DADS-A] | – | – | – | – | – | – | – | – | – | – | – | – | – | – | excreted less effectively than I-131 OIH ([3]; in vivo): ~20%
7 | Tc-99m-mercaptoacetylglycylglycylglycine [Tc-99m-MAGGG] | 107.3% | 2.6 percentage of radioactive agen | 1.1 percentage of radioactive agen | 3.5 percentage of radioactive agen | 2.9 percentage of radioactive agen | 0.1 percentage of radioactive agen | 79.9 percentage of radioactive agen | 102.6% | 0.03 percentage of radioactive agen | 1.2 percentage of radioactive agen | 0.06 percentage of radioactive agen | 0.08 percentage of radioactive agen | 0.02 percentage of radioactive agen | 98.5 percentage of radioactive agen | Blood [2]: 6.0 percentage of radioactive agen; Intestine [2]: 1.6 percentage of radioactive agen; Kidneys [2]: 5.4 percentage of radioactive agen; Liver [2]: 5.9 percentage of radioactive agen; Stomach [2]: 0.24 percentage of radioactive agen; Urine [2]: 64.7 percentage of radioactive agen; urine radioactivity (renal excretion) ([4]; 30 minutes): 71.8 ± 4.2 percentage of radioactive agen; urine radioactivity (renal excretion) ([4]; 3 hours): 98.6 ± 1.6 percentage of radioactive agen
8 | Nc1ccc(C(=O)NCC(=O)O)cc1 [PAH, para-aminohippuric acid] | – | – | – | – | – | – | – | – | – | – | – | – | – | – | fraction in the blood removed by the kidneys ([3]; in vivo): ~90%; fraction removed from the plasma by active secretion into the tubules ([3]; in vivo): ~70%
